# Patent US20240208961A1, “EIF4E INHIBITORS AND USES THEREOF” (PIC Therapeutics, Inc., priority 2022, published 2024)
# Experiments:
# [1] = test system: T47D; assay: Cell viability assay, adherent cell line, 5 day Alamar Blue (Example 8): T47D; type: cell-based; conditions: Homo sapiens, 120 h, Breast Cancer Cell Viability
# Protocol: (§1) Cell viability assays were performed on certain compounds of the disclosure, according to the following procedure.
# (§2) Cell line specific media conditions used:
# The procedure for adherent cell line compound screening was as follows:
# • Cells were seeded in 96-well cell culture treated tissue culture plates: ZR-75-1, NIHOVCAR3, T47D, and LOVO cells 4000 cells/well; and HPAFII 3000 cell/well
# Day 3: Compound Dilution and Dosing
# (§3) • 5-fold serial dilution (8 point) of each compound in DMSO 0-25 mM in compound storage plates was prepared (stored at −80° C. if not to be used immediately). • Cells were rinsed with 1% FBS Media (appropriate to cell line as described above) and replaced with 87.5 μL media prior to dosing. HPAFII was screened in normal 10% FBS Media. • DMSO compound dilution series was diluted in 1% FBS media (appropriate to cell line as described above)—2 μL in 248 μL to give an 8× final concentration. • Cells were dosed 12.5 μL/well in triplicate to give final dose curved on cells 0-25 μM. • Media blank 100 μL/well×8 was set up. • All plates were incubated at 37° C.
# Day 8: 5 Day Viability Assay
# (§4) • Alamar Blue viability reagent was added (10 μL per well) and incubated for 3 hours at 37° C. prior to fluorescence detection (Ex560 nm/Em590 nm) on a Varioskan Lux multimode plate reader.
# (§5) Results from cell viability assays are summarized in Table 23, wherein A represents IC50≤1 μM; B represents 1 μM<IC50≤8 μM; and C represents IC50>8 μM. Blank cells indicate that the compound was not tested in a particular assay.
# [2] = test system: NCIH510A; assay: Cell viability assay, suspension cell line, 5 day Alamar Blue (Example 8): NCIH510A; type: cell-based; conditions: Homo sapiens, NCI-H510A, 120 h, Small Cell Lung Cancer Cell Line
# Protocol: as §1, §2
# The procedure for suspension cell line compound screening was as follows:
# Day 1: Cell Seeding and Compound Dosing
# as §3, with “• Cells were seeded 2×10^5 in 96-well cell culture treated tissue culture plates: 87.5 μL/well; MM.1 S, MM,1R, NCIH510A. • 5-fold” for “• 5-fold”, “to dosing. • DMSO” for “to dosing. HPAFII was screened in normal 10% FBS Media. • DMSO”
# Day 6: 5 Day Viability Assay
# as §4, §5
smiles,measurement,setting,value
CC(C)Cc1sc(Nc2ncc(-c3cccs3)cc2C(=O)O)nc1C(C)(C)C [Compound I-11],IC50,[1],≤ 1000 nM
same,IC50,[2],≤ 1000 nM
